In the assay the test system is HDAC. Description: HDAC inhibition assay with aminocoumarin derivative of omega-acetylated lysine as substrate. Type of assay: biochemical. Particulars: compound concentration 10 nM; protocol of Hoffmann et al. 1999. The procedure: To determine the HDAC inhibitory properties of the compounds of the invention an assay was performed using an aminocoumarin derivative of an omega-acetylated lysine as substrate for the enzyme. This assay has been described in detail by Hoffmann, K., et al., Nucleic Acids Res. 27 (1999) 2057-2058. Using the protocol described therein, the inhibitory effect of representative compounds was determined at a concentration of 10 nM.
With `O=C(CCCCCCCN1CCc2ccccc2C1)NO` [Example 1, 8-(3,4-Dihydro-1H-isoquinolin-2-yl)-octanoic acid hydroxyamide], the “Inhibitory effect at 10 nM in %” value is recorded as 54%.
Next, `CCOc1cc2c(cc1OCC)CN(CCCCCCCC(=O)NO)CC2` [Example 5, 8-(6,7-Diethoxy-3,4-dihydro-1H-isoquinolin-2-yl)-octanoic acid hydroxyamide]: 26%.
For `COc1cc2c(cc1OC)C(c1ccccc1)N(CCCCCCCC(=O)NO)CC2` (stereo not shown) [Example 6, 8-(6,7-dimethoxy-1-phenyl-3,4-dihydro-1H-isoquinolin-2-yl)-octanoic acid hydroxyamide] the value was 26%; for `O=C(CCCCCCCN1CCc2c([nH]c3ccccc23)C1)NO` [Example 7, 8-(1,3,4,9-tetrahydro-β-carbolin-2-yl)-octanoic acid hydroxyamide], 26%.

These data come from patent publication US6800638B2, “Tetrahydropyridine derivatives, their preparation and their use as cell proliferation inhibitors” (Hoffman-La Roche Inc., priority 2000, dated 2004).
